According to publication PMC11339798, “Dual inhibitors of Pseudomonas aeruginosa virulence factors LecA and LasB” (Chemical Science, 2024):

Experiments:
LasB = target: T1, LasB (Pseudomonas aeruginosa, UniProt Q02RJ6); assay: FRET-based in vitro LasB inhibition (proteolysis) assay; type: biochemical, P. aeruginosa PA14
T1 construct: P. aeruginosa PA14 culture supernatant; made in house; host or cells: native secreted enzyme purified from P. aeruginosa PA14 culture supernatant (not recombinant)
Procedure: The LasB activity of the thiol derivatives 11, 12, 17, 18, 24 and 25 was tested using a functional FRET-based in vitro proteolysis assay (Fig. 4A). […]
(§1) Expression and purification of LasB and LecA
LecA was expressed recombinantly using E. coli pET25-pail, whereas LasB was isolated from P. aeruginosa PA14 culture supernatant as described previously. 1,2 […]
In vitro inhibition assay for LasB
The in vitro inhibition assay was performed as described previously,2 using purified LasB (final concentration 0.3 nM), the fluorogenic substrate 2-aminobenzoyl-Ala-Gly-Leu-Ala-4-nitrobenzylamide (purchased from Peptides International (Louisville, KY, USA) or Vivitide, LLC (Gardner, MA, USA), final concentration 150 µM)) in assay buffer (50 mM Tris, pH 7.2, 2.5 mM CaCl2, 0.075% Pluronic F-127, 5% DMSO). Fluorescence was measured using a CLARIOstar plate reader (BMG Labtech, Ortenberg, Germany). IC50 values were calculated using GraphPad Prism 8 (GraphPad Software, San Diego, CA, USA) from at least three independent experiments performed in duplicate.

LecA = target: T2, LecA (Pseudomonas aeruginosa, UniProt Q05097); assay: Competitive binding assay for LecA based on fluorescence polarization; set-up: species or system P. aeruginosa
T2 construct: made in house; host or cells: E. coli (plasmid pET25-pail)
T2 sequence (Q05097 whole entry): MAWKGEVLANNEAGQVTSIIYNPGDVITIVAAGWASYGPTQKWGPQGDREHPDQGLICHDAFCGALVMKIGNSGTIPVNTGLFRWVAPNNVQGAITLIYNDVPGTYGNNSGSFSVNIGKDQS
Procedure: The four thiols 17, 18, 24 and 25 as well as three disulfides 26a, 26b and 27 were then evaluated for their activity against LecA using a competitive binding assay based on fluorescence polarization (Fig. 4B). […]
as §1
LecA was expressed recombinantly using E. coli pET25-pail, whereas LasB was isolated from P. aeruginosa PA14 culture supernatant as described previously. 1,2
LecA labeling with fluorescein was performed in analogy to Sommer et al. 3 and Beshr et al.4 To this end fluorescein isothiocyanate (FITC) was freshly dissolved in carbonate-bicarbonate buffer with pH of 9.3 at a concentration of 3 mg mL-1. Subsequently, 66 µL of this FITC solution was combined with 1.4 mL of LecA at a concentration of 60 µM in carbonate-bicarbonate buffer, pH 9.3. The resulting mixture was then incubated at 25 °C with shaking at 500 rpm for 1 hour. Then, extensive washing with PBS/Ca2+ in a 5 kDa molecular weight cutoff centrifugal concentrator was performed to remove excess dye and buffer the labelled protein. […]
Competitive binding assay for LecA
The procedure for the fluorescence polarization-based competitive binding assay for LecA was performed as reported by Joachim et al. with modifications. 1 The assay was performed in TBS/Ca2+ buffer (20 mM Tris, 137 mM NaCl, 2.6 mM KCl at pH 7.4 supplemented with 1 mM CaCl 2 and contained 5% DMSO). The final protein concentration in the assay was 5 µM for LecA. Fluorescence intensities were recorded on a PheraStar FS plate reader (BMG Labtech GmbH, Germany) and polarization was calculated using MARS Data Analysis (BMG Labtech).
IC50 values were obtained from a four-parameter curve-fitting procedure. Averages and standard deviations were calculated from at least three independent experiments of technical

MMP-1 = target: T3, MMP-1 (Homo sapiens, UniProt P03956); assay: MMP selectivity assay (SensoLyte 520 Generic MMP Activity Kit); type: biochemical; details: read-out: Percent inhibition at 100 µM, MMP-1, 100 µM
T3 construct: purchased AnaSpec (Fremont, CA, USA)
T3 sequence (P03956 100-469): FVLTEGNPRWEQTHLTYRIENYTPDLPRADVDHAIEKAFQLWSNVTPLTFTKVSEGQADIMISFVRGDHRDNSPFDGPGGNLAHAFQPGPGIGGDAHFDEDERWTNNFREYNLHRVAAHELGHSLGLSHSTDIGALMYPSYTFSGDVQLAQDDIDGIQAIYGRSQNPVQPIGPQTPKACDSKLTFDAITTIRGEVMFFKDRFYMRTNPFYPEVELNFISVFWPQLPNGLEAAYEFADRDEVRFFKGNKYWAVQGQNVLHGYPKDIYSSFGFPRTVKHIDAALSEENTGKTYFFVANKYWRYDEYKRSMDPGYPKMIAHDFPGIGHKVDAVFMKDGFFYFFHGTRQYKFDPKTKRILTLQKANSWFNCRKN
Description: (§2) Given that the novel inhibitors contain a free thiol as a strong zinc binding group, we analyzed the selectivity of the diastereomeric mixtures 11 and 12 on six human matrix metalloproteases (MMPs) as putative off-targets.[53] […] Furthermore, we tested the impact of 11 and 12 on bacterial viability to ensure that these compounds are antivirulence agents and not antibiotics. […]
(§3) Selectivity and toxicity assays
(§4) Human MMPs -1, -2, -3, -7, -8 and -14 along with the SensoLyte 520 Generic MMP Activity
(§5) Kit*Fluorimetric* were purchased from AnaSpec (Fremont, CA, USA). The inhibition assay

MMP-14 = target: T4, MMP-14 (Homo sapiens, UniProt P50281); assay: as above; type: biochemical; details: read-out: Percent inhibition at 100 µM, MMP-14, 100 µM
T4 construct: purchased AnaSpec (Fremont, CA, USA)
Description: as §2, §3, §4, §5

MMP-2 = target: T5, MMP-2 (Homo sapiens, UniProt P08253); assay: as above; type: biochemical; details: read-out: Percent inhibition at 100 µM, MMP-2, 100 µM
T5 construct: purchased AnaSpec (Fremont, CA, USA)
T5 sequence (P08253 110-660): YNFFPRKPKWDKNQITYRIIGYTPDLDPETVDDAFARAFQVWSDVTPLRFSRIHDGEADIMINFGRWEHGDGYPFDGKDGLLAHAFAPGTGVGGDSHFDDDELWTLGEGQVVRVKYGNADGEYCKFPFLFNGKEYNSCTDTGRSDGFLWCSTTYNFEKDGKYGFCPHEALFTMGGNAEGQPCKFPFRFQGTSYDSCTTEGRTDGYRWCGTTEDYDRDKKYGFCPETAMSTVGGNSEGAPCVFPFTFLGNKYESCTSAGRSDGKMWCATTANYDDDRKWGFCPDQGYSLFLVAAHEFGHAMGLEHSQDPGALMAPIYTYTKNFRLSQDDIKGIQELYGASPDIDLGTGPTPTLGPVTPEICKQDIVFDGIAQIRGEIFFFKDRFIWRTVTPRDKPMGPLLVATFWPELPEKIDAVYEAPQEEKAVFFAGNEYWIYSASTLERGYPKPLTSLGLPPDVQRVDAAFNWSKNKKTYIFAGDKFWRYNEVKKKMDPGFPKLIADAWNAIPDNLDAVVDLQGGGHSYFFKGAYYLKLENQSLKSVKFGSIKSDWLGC
Description: as §2, §3, §4, §5

MMP-3 = target: T6, MMP-3 (Homo sapiens, UniProt P08254); assay: as above; type: biochemical; details: read-out: Percent inhibition at 100 µM, MMP-3, 100 µM
T6 construct: purchased AnaSpec (Fremont, CA, USA)
T6 sequence (P08254 100-477): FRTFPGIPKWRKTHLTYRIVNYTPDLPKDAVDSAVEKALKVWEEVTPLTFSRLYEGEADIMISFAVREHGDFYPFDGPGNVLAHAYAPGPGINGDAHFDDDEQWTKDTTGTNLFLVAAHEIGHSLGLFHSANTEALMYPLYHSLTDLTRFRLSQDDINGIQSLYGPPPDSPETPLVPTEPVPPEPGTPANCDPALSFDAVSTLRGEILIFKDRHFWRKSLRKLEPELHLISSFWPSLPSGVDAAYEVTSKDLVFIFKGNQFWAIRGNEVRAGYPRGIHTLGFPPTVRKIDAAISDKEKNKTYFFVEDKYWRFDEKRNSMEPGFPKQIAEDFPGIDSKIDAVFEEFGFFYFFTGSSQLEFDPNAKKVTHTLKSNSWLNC
Description: as §2, §3, §4, §5

MMP-7 = target: T7, MMP-7 (Homo sapiens, UniProt P09237); assay: as above; type: biochemical; details: read-out: Percent inhibition at 100 µM, MMP-7, 100 µM
T7 construct: purchased AnaSpec (Fremont, CA, USA)
T7 sequence (P09237 95-267): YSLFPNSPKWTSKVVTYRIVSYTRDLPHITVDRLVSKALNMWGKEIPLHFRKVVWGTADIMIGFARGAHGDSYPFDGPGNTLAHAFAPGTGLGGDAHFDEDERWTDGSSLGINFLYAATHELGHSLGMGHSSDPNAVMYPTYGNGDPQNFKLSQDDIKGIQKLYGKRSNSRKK
Description: as §2, §3, §4, §5

MMP-8 = target: T8, MMP-8 (Homo sapiens, UniProt P22894); assay: as above; type: biochemical; details: read-out: Percent inhibition at 100 µM, MMP-8, 100 µM
T8 construct: purchased AnaSpec (Fremont, CA, USA)
T8 sequence (P22894 101-467): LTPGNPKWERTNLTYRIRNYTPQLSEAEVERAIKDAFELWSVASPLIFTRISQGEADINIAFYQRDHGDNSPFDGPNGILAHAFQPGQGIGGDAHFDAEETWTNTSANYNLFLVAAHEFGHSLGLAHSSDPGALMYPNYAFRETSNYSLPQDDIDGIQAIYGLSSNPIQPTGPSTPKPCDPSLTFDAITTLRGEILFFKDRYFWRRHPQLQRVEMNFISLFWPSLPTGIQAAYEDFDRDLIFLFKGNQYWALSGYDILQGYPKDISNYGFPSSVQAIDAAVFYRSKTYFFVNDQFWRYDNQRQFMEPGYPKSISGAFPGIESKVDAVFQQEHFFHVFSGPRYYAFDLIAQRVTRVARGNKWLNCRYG
Description: as §2, §3, §4, §5

[1] = system: Pseudomonas aeruginosa PA14; assay: Antibacterial activity (MIC, ESCMID guidelines); type: cell-based; details: for MIC: Pseudomonas aeruginosa, PA14; for antimicrobial activity (bacterial viability): up to 100 μM
Procedure: as §2
(§6) Selectivity and toxicity assays […]
Antimicrobial activity against P. aeruginosa PA14 was tested using ESCMID guidelines and […]

Cytotoxicity MTT assay [2] = type: cell-based, human; details: human
Procedure: as §6
(§7) Cytotoxicity on human liver (HepG2), kidney (HEK293) and lung (A549) cells were performed
(§8) using MTT assay and measuring the optical density (OD) photometrically at 570 nm in a […]

HEK293 = assay: Cytotoxicity MTT assay; type: cell-based, human; details: HEK293, at 100 μM
Procedure: as §6, §7, §8

HepG2 = assay: Cytotoxicity MTT assay; type: cell-based, human; details: HepG2, at 100 μM
Procedure: as §6, §7, §8

Cytotoxicity MTT assay [3] = type: cell-based, human; details: human, A549 cells (lung)
Procedure: as §6
(§9) Cytotoxicity on human liver (HepG2), kidney (HEK293) and lung (A549) cells were performed using MTT assay and measuring the optical density (OD) photometrically at 570 nm in a FLUOstar Omega plate reader (BMG labtech, Ortenberg, Germany) as described previously. 6 […]
(§10) The A549 cell line, derived from human lung adenocarcinoma, was grown in Dulbecco's Modified Eagle Medium (DMEM) supplemented with 10% Fetal Bovine Serum (FBS) and 1% penicillin-streptomycin. […]

A549 = assay: Cytotoxicity MTT assay; type: cell-based, human; details: A549, at 100 μM
Procedure: as §6, §9, §10

T1 sequence (Q02RJ6 198-498): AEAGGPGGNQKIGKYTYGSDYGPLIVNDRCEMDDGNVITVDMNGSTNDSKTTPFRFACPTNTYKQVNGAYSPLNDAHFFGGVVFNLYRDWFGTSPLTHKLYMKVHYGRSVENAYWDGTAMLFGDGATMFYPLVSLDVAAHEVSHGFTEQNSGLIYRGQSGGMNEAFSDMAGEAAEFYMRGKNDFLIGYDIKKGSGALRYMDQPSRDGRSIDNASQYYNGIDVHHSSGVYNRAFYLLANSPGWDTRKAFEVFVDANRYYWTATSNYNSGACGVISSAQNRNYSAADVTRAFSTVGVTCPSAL

Row | Compound | IC50 (LasB) | IC50 (LecA) | inhibition at 100 µM (MMP-1) | inhibition at 100 µM (MMP-14) | inhibition at 100 µM (MMP-2) | inhibition at 100 µM (MMP-3) | inhibition at 100 µM (MMP-7) | inhibition at 100 µM (MMP-8) | MIC [1] | antimicrobial activity (bacterial viability) [1] | IC50 (Cytotoxicity MTT assay [2]; HEK293 cells (kidney)) | IC50 (Cytotoxicity MTT assay [2]; HepG2 cells (liver)) | cytotoxicity (HEK293) | cytotoxicity (HepG2) | IC50 (Cytotoxicity MTT assay [3]) | cytotoxicity (A549)
1 | O=C(Nc1ccc(S[C@@H]2O[C@H](CO)[C@H](O)[C@H](O)[C@H]2O)cc1)C(S)Cc1ccccc1 (some centres unmarked) [Compound 11] | 0.3 µM | 18.1 µM | 10 ± 5% | < 10% | < 10% | < 10% | < 10% | < 10% | > 100 µM | No antimicrobial activity was detected | > 100 µM | > 100 µM | no detectable cytotoxicity | no detectable cytotoxicity | > 100 µM | no detectable cytotoxicity
2 | CC(C)CC(S)C(=O)Nc1ccc(S[C@@H]2O[C@H](CO)[C@H](O)[C@H](O)[C@H]2O)cc1 (some centres unmarked) [Compound 12] | 0.8 µM | 19.8 µM | < 10% | 19 ± 5% | 19 ± 3% | < 10% | < 10% | < 10% | > 100 µM | No antimicrobial activity was detected | > 100 µM | > 100 µM | no detectable cytotoxicity | no detectable cytotoxicity | > 100 µM | no detectable cytotoxicity
